For 37 compounds, IC50 results are on record in patent US7932270B2 (Cytokinetics, Inc., priority 2006, dated 2011).

Usually IC50 stands for the concentration needed to halve the response being measured.

The assay deals with T1, chicken gizzard smooth muscle myosin subfragment-1 chemically crosslinked to cardiac or skeletal actin (Gallus gallus, UniProt P10587).
T1 construct: chicken gizzard smooth muscle myosin subfragment-1; from tissue; host or cells: chicken gizzard
T1 sequence (P02607 2-151): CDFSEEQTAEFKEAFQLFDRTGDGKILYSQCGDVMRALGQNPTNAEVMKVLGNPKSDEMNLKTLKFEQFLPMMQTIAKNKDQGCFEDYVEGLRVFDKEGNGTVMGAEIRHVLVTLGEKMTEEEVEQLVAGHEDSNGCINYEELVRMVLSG
T1 sequence (P10587 84-789): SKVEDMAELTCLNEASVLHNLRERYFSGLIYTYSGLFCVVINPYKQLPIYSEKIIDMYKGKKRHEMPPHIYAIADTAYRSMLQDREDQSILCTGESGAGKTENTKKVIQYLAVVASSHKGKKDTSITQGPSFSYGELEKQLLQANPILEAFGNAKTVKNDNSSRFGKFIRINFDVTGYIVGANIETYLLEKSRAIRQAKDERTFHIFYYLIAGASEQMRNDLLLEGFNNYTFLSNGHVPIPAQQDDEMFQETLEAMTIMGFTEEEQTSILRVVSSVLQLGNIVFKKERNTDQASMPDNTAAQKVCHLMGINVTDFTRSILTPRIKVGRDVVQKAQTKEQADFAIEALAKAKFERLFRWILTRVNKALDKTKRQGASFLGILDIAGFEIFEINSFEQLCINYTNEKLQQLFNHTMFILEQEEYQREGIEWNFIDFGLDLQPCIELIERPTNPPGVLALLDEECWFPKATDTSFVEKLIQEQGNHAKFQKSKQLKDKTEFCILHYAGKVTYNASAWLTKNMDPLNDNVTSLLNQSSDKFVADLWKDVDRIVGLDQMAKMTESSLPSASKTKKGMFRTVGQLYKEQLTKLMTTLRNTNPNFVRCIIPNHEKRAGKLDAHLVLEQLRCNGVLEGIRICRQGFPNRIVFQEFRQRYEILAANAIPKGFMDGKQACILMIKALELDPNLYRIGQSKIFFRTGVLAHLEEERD
Description: Smooth muscle myosin ATPase dose response assay (pyruvate kinase/horseradish peroxidase/pyruvate oxidase-coupled, amplex red fluorescence). To be noted: read-out: IC50 Arithmetic Mean. It counts as biochemical. The essentials:
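Chicken gizzard myosin S1 crosslinked to cardiac or skeletal actin, titrated to a set hydrolysis rate; 0.15 mM ATP, 12 mM PIPES pH 7.00, 100 mM KCl, 2 mM MgCl2. Pyruvate kinase/pyruvate oxidase/HRP coupling with amplex red fluorescence; IC50 from 4-parameter fit.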
On to `Cn1cc(-c2nc(NCCc3cccc(F)c3)c(C(=O)NC[C@H]3CCN3C(=O)OC(C)(C)C)cc2F)cn1` [tert-butyl (2R)-2-{[(5-fluoro-2-{[2-(3-fluorophenyl)ethyl]amino}-6-(1-methylpyrazol-4-yl)(3-pyridyl))carbonylamino]methyl}azetidinecarboxylate], for which the IC50 was determined as 0.525 µM.
The figure for `Cn1cc(-c2nc(NCCc3cccc(F)c3)c(C(=O)NC[C@H]3CCCN3C(=O)OC(C)(C)C)cc2F)cn1` [tert-butyl (2R)-2-{[(5-fluoro-2-{[2-(3-fluorophenyl)ethyl]amino}-6-(1-methylpyrazol-4-yl)(3-pyridyl))carbonylamino]methyl}pyrrolidinecarboxylate] is 1.46 µM; for `CC(C)(C)OC(=O)N1CC[C@@H]1CNC(=O)c1cc(F)c(-c2cn[nH]c2)nc1NCCc1cccc(F)c1` [tert-butyl (2R)-2-{[(5-fluoro-2-{[2-(3-fluorophenyl)ethyl]amino}-6-pyrazol-4-yl(3-pyridyl))carbonylamino]methyl}azetidinecarboxylate] it is 0.289 µM; for `CC(C)(C)OC(=O)N1CCC[C@@H]1CNC(=O)c1ccc(-c2ccccc2C#N)nc1NCCc1cccc(F)c1` [tert-butyl (2R)-2-{[(6-(2-cyanophenyl)-2-{[2-(3-fluorophenyl)ethyl]amino}(3-pyridyl))carbonylamino]methyl}pyrrolidinecarboxylate] it is 1.93 µM.
The figure for `CC(C)(C)OC(=O)N1CCC[C@@H]1CNC(=O)c1cc(F)c(-c2ccccc2C#N)nc1NCCc1cccc(F)c1` [tert-butyl (2R)-2-{[(6-(2-cyanophenyl)-5-fluoro-2-{[2-(3-fluorophenyl)ethyl]amino}(3-pyridyl))carbonylamino]methyl}pyrrolidinecarboxylate] is 9.04 µM.
To `CC(C)CCNc1nc(-c2ccccc2)ccc1C(=O)NCc1cccnc1` [{2-[3-methylbutyl)amino]-6-phenyl(3-pyridyl)}-N-(3-pyridylmethyl)carboxamide] belongs 2.48 µM; to `O=C(NCc1cccnc1)c1ccc(-c2ccccc2)nc1NCCC1OCCO1` [{2-[(2-(1,3-dioxolan-2-yl)ethyl)amino]-6-phenyl(3-pyridyl)}-N-(3-pyridylmethyl)carboxamide], 7.12 µM; to `O=C(NCc1cccnc1)c1ccc(-c2ccccc2)nc1NCCc1ccco1` [{2-[(2-(2-furyl)ethyl)amino]-6-phenyl(3-pyridyl)}-N-(3-pyridylmethyl)carboxamide], 0.294 µM.
As to `O=C(NCc1cccnc1)c1ccc(-c2nccs2)nc1NCCc1ccccn1` [{2-[(2-(2-pyridyl)ethyl)amino]-6-(1,3-thiazol-2-yl)(3-pyridyl)}-N-(3-pyridylmethyl)carboxamide], the IC50 was found to be 8.66 µM.
To `O=C(NCc1cccnc1)c1ccc(-c2cccs2)nc1NCCc1ccccn1` [{2-[(2-(2-pyridyl)ethyl)amino]-6-(2-thienyl)(3-pyridyl)}-N-(3-pyridylmethyl)carboxamide] belongs 0.797 µM; to `C=Cc1ccccc1-c1ccc(C(=O)NCc2cccnc2)c(NCCc2ccccn2)n1` [{2-[(2-(2-pyridyl)ethyl)amino]-6-(2-vinylphenyl)(3-pyridyl)}-N-(3-pyridylmethyl)carboxamide], 5.34 µM.
To `O=C(NCc1cccnc1)c1ccc(-c2ccsc2)nc1NCCc1ccccn1` [{2-[(2-(2-pyridyl)ethyl)amino]-6-(3-thienyl)(3-pyridyl)}-N-(3-pyridylmethyl)carboxamide] belongs 0.414 µM.
To `O=C(NCc1cccnc1)c1ccc(-c2cccc(C(F)(F)F)c2)nc1NCCc1ccccn1` [{2-[(2-(2-pyridyl)ethyl)amino]-6-[3-(trifluoromethyl)phenyl](3-pyridyl)}-N-(3-pyridylmethyl)carboxamide] belongs 5.93 µM; to `O=C(NCc1cccnc1)c1ccc(-c2ccc(C(F)(F)F)cc2)nc1NCCc1ccccn1` [{2-[(2-(2-pyridyl)ethyl)amino]-6-[4-(trifluoromethyl)phenyl](3-pyridyl)}-N-(3-pyridylmethyl)carboxamide], 2.29 µM; to `O=C(NCc1cccnc1)c1ccc(-c2ccccc2)nc1NCCC1=CCCCC1` [{2-[(2-cyclohex-1-enylethyl)amino]-6-phenyl(3-pyridyl)}-N-(3-pyridylmethyl)carboxamide], 0.532 µM.
In the case of `O=C(NCc1cccnc1)c1ccc(-c2ccccc2)nc1NCCC1CCCCC1` [{2-[(2-cyclohexylethyl)amino]-6-phenyl(3-pyridyl)}-N-(3-pyridylmethyl)carboxamide], the IC50 was determined as 1.85 µM.
The figure for `O=C(NCc1cccnc1)c1ccc(-c2ccccc2)nc1NCC(O)c1ccccc1` (stereo not shown) [{2-[(2-hydroxy-2-phenylethyl)amino]-6-phenyl(3-pyridyl)}-N-(3-pyridylmethyl)carboxamide] is 1.94 µM; for `O=C(NCc1cccnc1)c1ccc(-c2ccccc2)nc1NCCc1c[nH]cn1` [{2-[(2-imidazol-4-ylethyl)amino]-6-phenyl(3-pyridyl)}-N-(3-pyridylmethyl)carboxamide] it is 9.77 µM.
For the compound `O=C(NCc1cccnc1)c1ccc(-c2ccccc2)nc1NCCN1CCOCC1` [{2-[(2-morpholin-4-ylethyl)amino]-6-phenyl(3-pyridyl)}-N-(3-pyridylmethyl)carboxamide], the IC50 was determined as 37.3 µM.
The figure for `O=C(NCc1cccnc1)c1ccc(-c2ccccc2)nc1NCCCn1ccnc1` [{2-[(3-imidazolylpropyl)amino]-6-phenyl(3-pyridyl)}-N-(3-pyridylmethyl)carboxamide] is 30.3 µM; for `C[C@@H](CNc1nc(-c2ccccc2)ccc1C(=O)NCc1cccnc1)c1ccccc1` [{2-[((2R)-2-phenylpropyl)amino]-6-phenyl(3-pyridyl)}-N-(3-pyridylmethyl)carboxamide] it is 17.3 µM.
The figure for `O=C(NCc1cccnc1)c1ccc(-c2ccccc2)nc1NCC1CCCO1` (stereo not shown) [{2-[(oxolan-2-ylmethyl)amino]-6-phenyl(3-pyridyl)}-N-(3-pyridylmethyl)carboxamide] is 4.83 µM; for `O=C(NCc1cccnc1)c1cc(F)c(-c2cn[nH]c2)nc1NCCn1cccn1` [{5-fluoro-6-pyrazol-4-yl-2-[(2-pyrazolylethyl)amino](3-pyridyl)}-N-(3-pyridylmethyl)carboxamide] it is 0.211 µM.
For the compound `Cn1cc(-c2ccc(C(=O)NCc3cccnc3)c(NCCc3ccccn3)n2)cn1` [{6-(1-methylpyrazol-4-yl)-2-[(2-(2-pyridyl)ethyl)amino](3-pyridyl)}-N-(3-pyridylmethyl)carboxamide], the IC50 is 2.53 µM.
Regarding `Cc1cccc(-c2ccc(C(=O)NCc3cccnc3)c(NCCc3ccccn3)n2)c1C` [{6-(2,3-dimethylphenyl)-2-[(2-(2-pyridyl)ethyl)amino](3-pyridyl)}-N-(3-pyridylmethyl)carboxamide], the IC50 was 6.94 µM.
To `Cc1ccc(-c2ccc(C(=O)NCc3cccnc3)c(NCCc3ccccn3)n2)c(C)c1` [{6-(2,4-dimethylphenyl)-2-[(2-(2-pyridyl)ethyl)amino](3-pyridyl)}-N-(3-pyridylmethyl)carboxamide] belongs 3.96 µM.
With `Cc1ccc(C)c(-c2ccc(C(=O)NCc3cccnc3)c(NCCc3ccccn3)n2)c1` [{6-(2,5-dimethylphenyl)-2-[(2-(2-pyridyl)ethyl)amino](3-pyridyl)}-N-(3-pyridylmethyl)carboxamide], the 50% inhibitory concentration (IC50) is 13.6 µM.
`O=C(NCc1cccnc1)c1ccc(-c2ccccc2Cl)nc1NCCc1ccccn1` [{6-(2-chlorophenyl)-2-[(2-(2-pyridyl)ethyl)amino](3-pyridyl)}-N-(3-pyridylmethyl)carboxamide]: the IC50 worked out at 4.44 µM.
For the compound `N#Cc1ccccc1-c1ccc(C(=O)NCc2cccnc2)c(NCCc2ccco2)n1` [{6-(2-cyanophenyl)-2-[(2-(2-furyl)ethyl)amino](3-pyridyl)}-N-(3-pyridylmethyl)carboxamide], the IC50 was determined as 0.065 µM.
To `N#Cc1ccccc1-c1ccc(C(=O)NCc2cccnc2)c(NCCc2ccccn2)n1` [{6-(2-cyanophenyl)-2-[(2-(2-pyridyl)ethyl)amino](3-pyridyl)}-N-(3-pyridylmethyl)carboxamide] belongs 0.46 µM; to `N#Cc1ccccc1-c1ccc(C(=O)NCc2cccnc2)c(NCCc2cccs2)n1` [{6-(2-cyanophenyl)-2-[(2-(2-thienyl)ethyl)amino](3-pyridyl)}-N-(3-pyridylmethyl)carboxamide], 0.029 µM.
To `N#Cc1ccccc1-c1ccc(C(=O)NCc2cccnc2)c(NCCC2CCCO2)n1` (stereo not shown) [{6-(2-cyanophenyl)-2-[(2-oxolan-2-ylethyl)amino](3-pyridyl)}-N-(3-pyridylmethyl)carboxamide] belongs 0.92 µM; to `O=C(NCc1cccnc1)c1ccc(-c2ccccc2F)nc1NCCc1ccccn1` [{6-(2-fluorophenyl)-2-[(2-(2-pyridyl)ethyl)amino](3-pyridyl)}-N-(3-pyridylmethyl)carboxamide], 1.32 µM; to `O=Cc1ccccc1-c1ccc(C(=O)NCc2cccnc2)c(NCCc2ccccn2)n1` [{6-(2-formylphenyl)-2-[(2-(2-pyridyl)ethyl)amino](3-pyridyl)}-N-(3-pyridylmethyl)carboxamide], 8.75 µM.
On to `O=C(NCc1cccnc1)c1ccc(-c2ccccc2O)nc1NCCc1ccccn1` [{6-(2-hydroxyphenyl)-2-[(2-(2-pyridyl)ethyl)amino](3-pyridyl)}-N-(3-pyridylmethyl)carboxamide], for which the half-inhibitory concentration (IC50) amounted to 2.17 µM.
To `COc1ccccc1-c1ccc(C(=O)NCc2cccnc2)c(NCCc2ccccn2)n1` [{6-(2-methoxyphenyl)-2-[(2-(2-pyridyl)ethyl)amino](3-pyridyl)}-N-(3-pyridylmethyl)carboxamide] belongs 17.9 µM.
The figure for `Cc1ccccc1-c1ccc(C(=O)NCc2cccnc2)c(NCCc2ccccn2)n1` [{6-(2-methylphenyl)-2-[(2-(2-pyridyl)ethyl)amino](3-pyridyl)}-N-(3-pyridylmethyl)carboxamide] is 11 µM.
